Test results published in patent US10780101B2, “Amide derivatives of squalamine for the treatment of infections” (VIRBAC, priority 2016, dated 2020).
Converted amounts (≈) assume the structure as drawn. Where two headings read alike, the source gives them in different places.

Key:
P. aeruginosa (PAO1) = assay: MIC of doxycycline alone on PAO1; format: cell-based; settings: Pseudomonas aeruginosa, Gram-negative strain P. aeruginosa (PAO1)
Procedure: On the Gram-negative strain of P. aeruginosa (PAO1), doxycycline has an MIC of 40 μg/mL.

P. aeruginosa (1051575) [1] = assay: Potentiation of erythromycin activity (combination MIC); format: cell-based, Pseudomonas aeruginosa; settings: erythromycin 2 μg/mL; concentration of compound required to restore antibiotic activity
Procedure: (§1) This method requires the use of a 96-well plate: 100 μL of a liquid culture medium are placed in each well and then seeded with the microbial suspension prepared previously. The required volume to be seeded is calculated for an OD of 0.01, which corresponds to about 5×10^6 bacteria in each well. In this plate, the first line corresponds to a negative control (200 μL of sterile culture medium in each well), the second line corresponds to a positive control (100 μL of sterile culture medium+100 μL of the bacterial suspension), and the third line contains 192 μL of culture medium; 8 μL of compound of formula (I) to be tested are placed in each well. Thereafter, a cascade dilution is performed from this line. L of a doxycycline solution (1 mg dissolved in 20 mL) are then added to each well of lines 3 to 8 to obtain a final antibiotic concentration of 2 μg/mL. 92 μL of bacterial suspension are then added to lines 3 to 8. The results are read (the determination of the MIC (2 μg/mL of doxycycline) in the presence of X g/mL of compound of formula (I)) after 24 hours of incubation at 37° C. under a humid atmosphere. After 24 hours of incubation at 37° C., 40 μL of nitro tetrazolium iodide are added to each well to reveal the presence of live bacteria by staining the medium pink.
The procedure is identical to that indicated in Example 5 above. 8 μL of an antibiotic solution under consideration (1 mg dissolved in 20 mL) are added to obtain a final antibiotic concentration of 2 μg/mL instead of 8 μL of a doxycycline solution.
(§2) The results are given in table V. They indicate the concentration of compound of formula (I) required to be able to restore the activity of the antibiotic under consideration.

[2] = tested on: S. intermedius Animal (1051997); assay: MIC determination, S. intermedius animal (1051997); format: cell-based; settings: Staphylococcus intermedius; Gram-positive; Mueller-Hinton medium, 24 h at 37° C.
How it was run: (§3)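 Broth microdilution in Mueller-Hinton medium; compounds from 5 mg/mL stock in DMSO/methanol (50/50), twofold serial dilutions, inoculum adjusted to OD 0.01. Plates incubated 24 h at 37 °C, humid atmosphere; OD read at 620 nm to derive MIC, duplicates.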

[3] = tested on: P. aeruginosa Human ATCC 27853; assay: MIC determination, P. aeruginosa human ATCC 27853; format: cell-based; settings: Pseudomonas aeruginosa, ATCC27853; Gram-negative; Mueller-Hinton medium, 24 h at 37° C.
How it was run: as §3

P. aeruginosa (1051575) [4] = assay: Potentiation of doxycycline activity (combination MIC); format: cell-based, Pseudomonas aeruginosa; settings: in presence of doxycycline 2 μg/mL; 24 hours at 37° C.
E. coli Human ATCC 28922 = assay: MIC determination, E. coli human ATCC 28922; format: cell-based; settings: Escherichia coli, ATCC28922; Gram-negative; Mueller-Hinton medium, 24 h at 37° C.
How it was run: as §3

S. aureus Animal (340) = assay: MIC determination, S. aureus animal (340); format: cell-based; settings: Staphylococcus aureus; Gram-positive; Mueller-Hinton medium, 24 h at 37° C.
How it was run: as §3

P. aeruginosa (1051575) [5] = assay: Potentiation of chloramphenicol activity (combination MIC); format: cell-based, Pseudomonas aeruginosa; settings: chloramphenicol 2 μg/mL; concentration of compound required to restore antibiotic activity
Procedure: as §1, with “L of a doxycycline solution (1 mg dissolved in 20 mL) are then added to each well of lines 3 to 8 to obtain a final antibiotic concentration of 2 μg/mL.” left out
The procedure is identical to that indicated in Example 5 above. […]
as §2

C. albicans = assay: Antifungal activity, cascade microdilution; format: cell-based; settings: Candida albicans, 24 h, read-out: IC50 (μg/mL) C. albicans
[6] = tested on: S. aureus Human ATCC 25923; assay: MIC determination, S. aureus human ATCC 25923; format: cell-based; settings: Staphylococcus aureus, ATCC25923; Gram-positive; Mueller-Hinton medium, 24 h at 37° C.
How it was run: as §3

[7] = tested on: P. aeruginosa Animal (1051575); assay: MIC determination, P. aeruginosa animal (1051575); format: cell-based; settings: Pseudomonas aeruginosa; Gram-negative; Mueller-Hinton medium, 24 h at 37° C.
How it was run: as §3

CHO-K1 cells = assay: WST1 cytotoxicity test on CHO-K1 cells; format: cell-based, Chinese hamster; settings: Cricetulus griseus
How it was run: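 CHO-K1 cells pre-grown 24 h, then exposed to increasing compound concentrations in duplicate for 24 h at 37° C, 5% CO2. Viability read after 20 min with 10% WST-1 in PBS at 450 nm; IC50 from nonlinear regression as concentration cutting viability 50%.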

E. coli Animal (1956) = assay: MIC determination, E. coli animal (1956); format: cell-based; settings: Escherichia coli; Gram-negative; Mueller-Hinton medium, 24 h at 37° C.
How it was run: as §3

[8] = tested on: E. faecalis Human ATCC 29212; assay: MIC determination, E. faecalis human ATCC 29212; format: cell-based; settings: Enterococcus faecalis, ATCC29212; Gram-positive; Mueller-Hinton medium, 24 h at 37° C.
How it was run: as §3

[9] = CHO-K1, 24 h, read-out: IC50 (μg/mL) CHO
[10] = CHO-K1, read-out: IC50 (μg/mL) CHO

Structure (SMILES)	MIC (P. aeruginosa (PAO1))	MIC P. aeruginosa (1051575) compound + erythromycin (P. aeruginosa (1051575) [1])	MIC [2]	MIC [3]	MIC - P. aeruginosa (1051575): content of compound of formula (I) to restore the doxycycline activity (at 2 μg/mL) (P. aeruginosa (1051575) [4])	MIC (E. coli Human ATCC 28922)	MIC (S. aureus Animal (340))	MIC P. aeruginosa (1051575) compound + chloramphenicol (P. aeruginosa (1051575) [5])	IC50 (C. albicans)	MIC [6]	MIC [7]	IC50 (CHO-K1 cells; [9])	IC50 (CHO-K1 cells; [10])	MIC (E. coli Animal (1956))	MIC [8]
C[C@H]1c2cccc(O)c2C(=O)C2=C(O)[C@]3(O)C(=O)C(C(N)=O)=C(O)[C@@H](N(C)C)[C@@H]3[C@@H](O)[C@@H]21 [doxycycline]	40 µg/mL														
CCN(CC)C(=O)CC[C@@H](C)[C@H]1CCC2C3C(CC[C@@]21C)[C@@]1(C)CC[C@H](NCCCN(CCCN)CCCN)CC1C[C@H]3O (stereo partly drawn) [(44), 3β-(tris(3-aminopropyl)amine)-N,N-diethylchenodeoxycholamide]		8 µg/mL	2 µg/mL (≈ 3.24 µM)	60 µg/mL (≈ 97.1 µM)	2 µg/mL	15 µg/mL (≈ 24.3 µM)	4 µg/mL (≈ 6.47 µM)	4 µg/mL	0.5 µg/mL (≈ 0.809 µM)	2 µg/mL (≈ 3.24 µM)	60 µg/mL (≈ 97.1 µM)	75 µg/mL (≈ 121 µM)	75 µg/mL (≈ 121 µM)	30 µg/mL (≈ 48.5 µM)	
CC(C)NC(=O)CC[C@@H](C)[C@H]1CCC2C3C(CC[C@@]21C)[C@@]1(C)CC[C@H](NCCCNCCCCN)CC1C[C@H]3O (stereo partly drawn) [(52), 3β-spermidino-N-isopropylchenodeoxycholamide]			2 µg/mL (≈ 3.57 µM)	56 µg/mL (≈ 99.8 µM)	3.5 µg/mL	112 µg/mL (≈ 200 µM)	4 µg/mL (≈ 7.13 µM)		4 µg/mL (≈ 7.13 µM)	7 µg/mL (≈ 12.5 µM)	112 µg/mL (≈ 200 µM)	80 µg/mL (≈ 143 µM)	48 µg/mL (≈ 85.6 µM)	28 µg/mL (≈ 49.9 µM)	14 µg/mL (≈ 25 µM)
CC(C)NC(=O)CC[C@@H](C)[C@H]1CCC2C3CCC4C[C@@H](NCCCN5CCN(CCCN)CC5)CC[C@]4(C)C3CC[C@@]21C (stereo partly drawn) [(19), 3β-(1,4-bis(3-aminopropyl)piperazine)-N-isopropyllithocholamide]			4 µg/mL (≈ 6.67 µM)	120 µg/mL (≈ 200 µM)	8 µg/mL	30 µg/mL (≈ 50 µM)	4 µg/mL (≈ 6.67 µM)		4 µg/mL (≈ 6.67 µM)	8 µg/mL (≈ 13.3 µM)	30 µg/mL (≈ 50 µM)	12 µg/mL (≈ 20 µM)	12 µg/mL (≈ 20 µM)	30 µg/mL (≈ 50 µM)	15 µg/mL (≈ 25 µM)
CC(C)NC(=O)CC[C@@H](C)[C@H]1CCC2C3CCC4C[C@@H](NCCCNCCCNCCCN)CC[C@]4(C)C3C[C@H](O)[C@@]21C (stereo partly drawn) [Compound (1), 3β-norspermino-N-isopropyldeoxycholamide]			0.5 µg/mL (≈ 0.828 µM)	8 µg/mL (≈ 13.2 µM)	1 µg/mL	8 µg/mL (≈ 13.2 µM)	2 µg/mL (≈ 3.31 µM)		0.5 µg/mL (≈ 0.828 µM)	4 µg/mL (≈ 6.62 µM)	8 µg/mL (≈ 13.2 µM)	42 µg/mL (≈ 69.5 µM)	33 µg/mL (≈ 54.6 µM)	8 µg/mL (≈ 13.2 µM)	8 µg/mL (≈ 13.2 µM)
CCN(CC)C(=O)CC[C@@H](C)[C@H]1CCC2C3C(CC[C@@]21C)[C@@]1(C)CC[C@H](NCCCNCCCCNCCCN)CC1C[C@H]3O (stereo partly drawn) [Compound (34), 3β-spermino-N,N-diethylchenodeoxycholamide]			2 µg/mL (≈ 3.16 µM)	16 µg/mL (≈ 25.3 µM)	2 µg/mL	8 µg/mL (≈ 12.7 µM)	4 µg/mL (≈ 6.33 µM)		0.5 µg/mL (≈ 0.791 µM)	4 µg/mL (≈ 6.33 µM)	16 µg/mL (≈ 25.3 µM)	50 µg/mL (≈ 79.1 µM)	50 µg/mL (≈ 79.1 µM)	8 µg/mL (≈ 12.7 µM)	2 µg/mL (≈ 3.16 µM)
